Laboratory results: patent publication US10376520B2, “Methods for the treatment of cardiovascular disorders” (Galapagos NV, priority 2015, dated 2019)

System: Subjects With Active Crohn's Disease
Assay: [HDL] determination, Study 5 (Crohn's disease)
Type: in vivo, human
Text: Double-Blind, Randomized, Placebo-Controlled, Multi-Centre Study to Investigate the Efficacy and Safety of Compound 1 in Subjects With Active Crohn's Disease With Evidence of Mucosal Ulceration.
This is a double-blind, randomized, placebo-controlled, multi-centre Phase 2 study to investigate the efficacy and safety of Compound 1 administered once daily for the treatment of active CD with evidence of mucosal ulceration. The pharmacokinetics (including a PK substudy) and pharmacodynamics of Compound 1 and metabolite in CD will also be characterised.
A total of 180 eligible subjects will be randomized to receive Compound 1 or placebo in addition to their stable background treatment (eg, corticosteroids, aminosalicylates, or CD-related antibiotics). The study will consist of 2 parts, with total treatment duration of 20 weeks. Randomization in Part 1 will be stratified according the subject's previous anti-TNF exposure/response, CRP level at Screening, and oral corticosteroid use at visit Day −1.
After the first 10 weeks of treatment in Part 1, patients will be re-randomized for Part 2 as shown in the diagram below and will be stratified according to the subject's clinical response, previous anti-TNF exposure/response, and oral corticosteroid use at visit Day −1.
The following assays were conducted at Eurofins Global Central Laboratory, Bergschot 71, 4817 PA Breda, The Netherlands, and at Quest Diagnostics, Clinical Trials, Quest House, 125-135 Staines Road, Hounslow, Middlesex, TW3 3JB, United Kingdom. The assays for Study 5 were performed at BARC Europe, 3B, Industrie Park, Zwijnaarde, B-9052 Ghent, Belgium.
This assay relies on a homogeneous enzymatic colorimetric test. In the presence of magnesium ions, dextran sulfate selectively forms water-soluble complexes with LDL, VLDL and chylomicrons which are resistant to PEG-modified enzymes.
The cholesterol concentration of [HDL]-cholesterol is determined enzymatically by cholesterol esterase and cholesterol oxidase coupled with PEG to the amino groups (approx. 40%).
In the presence of peroxidase, the hydrogen peroxide generated reacts with 4-amino-antipyrine and Sodium N-(2-hydroxy-3-sulfopropyl)-3,5-dimethoxyaniline (HSDA) to form a purple-blue dye. The color intensity of this dye is directly proportional to the cholesterol concentration and is measured photometrically.
Human serum and plasma samples [HDL] determination was done on a Roche/Hitachi Cobas c 701/702 system which automatically calculate the analyte concentration of each sample. Samples containing precipitates are centrifuged before performing the assay.

[1] = 200 mg q.d. continued to week 20; week 2
[2] = 200 mg q.d. continued to week 20; week 4
[3] = 200 mg q.d. continued to week 20; week 6
[4] = 200 mg q.d. continued to week 20; week 10
[5] = 200 mg q.d. continued to week 20; week 12
[6] = 200 mg q.d. continued to week 20; week 16
[7] = 200 mg q.d. continued to week 20; week 20
[8] = 200 mg q.d. week 0 to 10, then 100 mg q.d. (N = 30), week 2
[9] = 200 mg q.d. week 0 to 10, then 100 mg q.d. (N = 30), week 4
[10] = 200 mg q.d. week 0 to 10, then 100 mg q.d. (N = 30), week 6
[11] = 200 mg q.d. week 0 to 10, then 100 mg q.d. (N = 30), week 10
[12] = 200 mg q.d. week 0 to 10, then 100 mg q.d. (N = 30), week 12
[13] = 200 mg q.d. week 0 to 10, then 100 mg q.d. (N = 30), week 16
[14] = 200 mg q.d. week 0 to 10, then 100 mg q.d. (N = 30), week 20
[15] = 200 mg q.d. week 0 to 10, then placebo (N = 23), week 2
[16] = 200 mg q.d. week 0 to 10, then placebo (N = 23), week 4
[17] = 200 mg q.d. week 0 to 10, then placebo (N = 23), week 6
[18] = 200 mg q.d. week 0 to 10, then placebo (N = 23), week 10
[19] = 200 mg q.d. week 0 to 10, then placebo (N = 23), week 12
[20] = 200 mg q.d. week 0 to 10, then placebo (N = 23), week 16
[21] = 200 mg q.d. week 0 to 10, then placebo (N = 23), week 20
[22] = 200 mg q.d. week 0 to 10, to 100 mg q.d. week 10 to 20; week 2

O=C(Nc1nc2cccc(-c3ccc(CN4CCS(=O)(=O)CC4)cc3)n2n1)C1CC1 [Compound 1, cyclopropanecarboxylic acid {5-[4-(1,1-dioxo-thiomorpholin-4-ylmethyl)-phenyl]-[1,2,4]triazolo[1,5-a]pyridin-2yl}-amide]
[HDL] Mean CFB - 10 weeks results (200 mg q.d. (N = 130), week 2): 0.222 mmol/L | [HDL] Median CFB - 10 weeks results (200 mg q.d. (N = 130), week 2): 0.210 mmol/L | [HDL] Mean CFB - 10 weeks results (200 mg q.d. (N = 130), week 4): 0.237 mmol/L | [HDL] Median CFB - 10 weeks results (200 mg q.d. (N = 130), week 4): 0.210 mmol/L | [HDL] Mean CFB - 10 weeks results (200 mg q.d. (N = 130), week 6): 0.243 mmol/L | [HDL] Median CFB - 10 weeks results (200 mg q.d. (N = 130), week 6): 0.250 mmol/L | [HDL] Mean CFB - 10 weeks results (200 mg q.d. (N = 130), week 10): 0.239 mmol/L | [HDL] Median CFB - 10 weeks results (200 mg q.d. (N = 130), week 10): 0.260 mmol/L | [HDL] Median CFB - 10 weeks results (200 mg q.d. (N = 130); week 2): 16.867% | [HDL] Median CFB - 10 weeks results (200 mg q.d. (N = 130); week 4): 15.333% | [HDL] Median CFB - 10 weeks results (200 mg q.d. (N = 130); week 6): 16.867% | [HDL] Median CFB - 10 weeks results (200 mg q.d. (N = 130); week 10): 15.789% | [HDL] Mean CFB - 20 weeks results [1]: 18.29% | [HDL] Median CFB - 10 weeks results [1]: 17.33% | [HDL] Mean CFB - 20 weeks results [2]: 15.66% | [HDL] Median CFB - 10 weeks results [2]: 9.91% | [HDL] Mean CFB - 20 weeks results [3]: 19.93% | [HDL] Median CFB - 10 weeks results [3]: 13.98% | [HDL] Mean CFB - 20 weeks results [4]: 17.97% | [HDL] Median CFB - 10 weeks results [4]: 12.50% | [HDL] Mean CFB - 20 weeks results [5]: 16.97% | [HDL] Median CFB - 10 weeks results [5]: 9.94% | [HDL] Mean CFB - 20 weeks results [6]: 13.90% | [HDL] Median CFB - 10 weeks results [6]: 12.22% | [HDL] Mean CFB - 20 weeks results [7]: 11.15% | [HDL] Median CFB - 10 weeks results [7]: 10.66% | [HDL] Mean CFB - 20 weeks results [8]: 0.24 mmol/L | [HDL] Median CFB - 20 weeks results [8]: 0.22 mmol/L | [HDL] Mean CFB - 20 weeks results [9]: 0.31 mmol/L | [HDL] Median CFB - 20 weeks results [9]: 0.22 mmol/L | [HDL] Mean CFB - 20 weeks results [10]: 0.33 mmol/L | [HDL] Median CFB - 20 weeks results [10]: 0.31 mmol/L | [HDL] Mean CFB - 20 weeks results [11]: 0.33 mmol/L | [HDL] Median CFB - 20 weeks results [11]: 0.26 mmol/L | [HDL] Mean CFB - 20 weeks results [12]: 0.17 mmol/L | [HDL] Median CFB - 20 weeks results [12]: 0.15 mmol/L | [HDL] Mean CFB - 20 weeks results [13]: 0.11 mmol/L | [HDL] Median CFB - 20 weeks results [13]: 0.03 mmol/L | [HDL] Mean CFB - 20 weeks results [14]: 0.18 mmol/L | [HDL] Median CFB - 20 weeks results [14]: 0.16 mmol/L | [HDL] Mean CFB - 20 weeks results [15]: 0.18 mmol/L | [HDL] Median CFB - 20 weeks results [15]: 0.18 mmol/L | [HDL] Mean CFB - 20 weeks results [16]: 0.30 mmol/L | [HDL] Median CFB - 20 weeks results [16]: 0.39 mmol/L | [HDL] Mean CFB - 20 weeks results [17]: 0.15 mmol/L | [HDL] Median CFB - 20 weeks results [17]: 0.16 mmol/L | [HDL] Mean CFB - 20 weeks results [18]: 0.16 mmol/L | [HDL] Median CFB - 20 weeks results [18]: 0.24 mmol/L | [HDL] Mean CFB - 20 weeks results [19]: -0.12 mmol/L | [HDL] Median CFB - 20 weeks results [19]: -0.03 mmol/L | [HDL] Mean CFB - 20 weeks results [20]: -0.18 mmol/L | [HDL] Median CFB - 20 weeks results [20]: -0.05 mmol/L | [HDL] Mean CFB - 20 weeks results [21]: -0.21 mmol/L | [HDL] Median CFB - 20 weeks results [21]: -0.08 mmol/L | [HDL] Mean CFB - 20 weeks results [22]: 20.28% | [HDL] Median CFB - 10 weeks results [22]: 17.11%
